Data from US12577247B2 (BUGWORKS RESEARCH, INC., priority 2021, dated 2026).

How the values were obtained:
[1] = target: T1, A2B receptor (Homo sapiens, UniProt P29275); assay: A2bR antagonism IC50, cAMP TR-FRET in HEK-293 cells, high concentration of adenosine (30 μM); conditions: A2BR IC50 (nM) (@30 μM Adenosine), HEK-293 cells expressing A2B receptor; agonist adenosine 30 μM; 2% HSA; inhibition of cAMP;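 note: compounds preincubated 10 min with cells, then adenosine stimulation 30 min at room temperature in buffer with Rolipram 100 µM and EHNA 30 µM, TR-FRET read after 1 h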
T1 sequence (P29275 1-332): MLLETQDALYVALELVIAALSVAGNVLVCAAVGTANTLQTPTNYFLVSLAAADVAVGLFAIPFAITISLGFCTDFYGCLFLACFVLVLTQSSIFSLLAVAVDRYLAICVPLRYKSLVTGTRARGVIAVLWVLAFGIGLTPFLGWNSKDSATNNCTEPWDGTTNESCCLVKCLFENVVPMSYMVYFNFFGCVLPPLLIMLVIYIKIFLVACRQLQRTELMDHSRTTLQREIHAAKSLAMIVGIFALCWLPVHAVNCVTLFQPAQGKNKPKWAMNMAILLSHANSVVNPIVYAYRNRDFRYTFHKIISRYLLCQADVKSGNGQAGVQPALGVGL
Protocol: A Time-Resolved Fluorescence Energy Transfer (TR-FRET) assay was used to show the inhibition of this cAMP production in HEK cells upon treatment with compounds of the Formula I of the present disclosure.
HEK-293 cells expressing A2A receptor (#ES-011-C) or A2B receptor (#ES 013-C) were obtained from PerkinElmer. Cells were maintained in DMEM medium supplemented with 10% FBS and 200 μg/mL of G418 at 37° C. and 5% CO2. The cells were cultured in antibiotic free medium for a period of 16-20 hours prior to the assay. All subsequent steps of the assay are performed at room temperature (22-24° C.). […] About 1500 cells per well were pre-incubated for 10 minutes with the compounds of the present invention before adding the agonist Adenosine at a high concentration (30 μM) for a total stimulation time of 30 minutes. […] The assays were conducted in a stimulation buffer containing 1×DMEM, 5 mM HEPES, 2% Human serum albumin (HSA), 100 μM Rolipram and 30 μM erythro-9-(2-hydroxy-3-nonyl) adenine (EHNA). Serial dilutions of compounds were made in stimulation buffer to achieve a final concentration of high micromolar in a reaction volume of 10 μL. The total reaction volume was 10 μL (5 μL of cells, 2.5 μL of antagonist and 2.5 μL of agonist). […] The stimulation was ended, and the reaction completed by adding 5 μL of 4× Eu-cAMP tracer working solution and 5 μL of 4× ULight-anti-cAMP working solution. The TR FRET signal was measured after 1-hour incubation using a Tecan M1000 or a PerkinElmer Victor Nivo plate reader.

[2] = Cell based permeability/efflux Caco-2 assay; format: in vitro ADME; conditions: human, Caco-2, 10 μM; for Papp A→B at 120 min, 10 µM: apical to basolateral; for Papp B→A at 120 min, 10 µM: basolateral to apical
Protocol: Briefly, Permeability in a Caco-2 monolayer was determined at 10 μM. High density Caco-2 cells were obtained with fluent monolayer with trans epithelial electrical resistance (TEER) values greater than 350 ohm·cm^2 in the assay at 21 days of culture in 24 or 96 well insert plates. TEER was measured both before and after performing all the transport experiments. […] Transport buffer, 800 μL Hanks balanced salt sodium (HBSS) (pH 7.4) consisting of 10 mM HEPES without proteins was first dispensed to the basal side of the monolayer. The assay was then initiated by adding 200 μL, of compound solution to the apical side (all test compounds were diluted in HBSS, pH 6.5, with 1% DMSO as co-solvent). Two μL and 200 μL of samples were withdrawn before and at 45- and 120-min post addition of test compound, from the apical donor compartment and the base lateral receiver compartment, respectively. The transwell plates were kept for 120 min of incubation time at 37° C., 5% CO2, 95% relative humidity. At the end of incubation, sample solutions from both donor and receiver wells were mixed with acetonitrile containing internal standard (IS) immediately. Samples were analyzed including starting dosing solution, donor solution, and receiver solution by LC/MS/MS (API-4500). Concentrations of test compound was expressed as area ratio of analytes versus internal standard (IS).
A passive permeability was determined by complete chemical inhibition of the three major efflux transporters, ABCB1 (P-gp), ABCG2 (BCRP) and […] in Caco-2 cells using a cocktail of chemical inhibitors quinidine (P-gp), sulfasalazine (BCRP) and benzbromarone (MRP2)
The mean apparent permeability (Papp, X 10^−[…]) is calculated as follows
[formula] Where dq/dt=rate of transport (rate of transport of compound in the receiver compartment), Co=initial concentration in the donor compartment, A=surface area of the effective filter membrane. Plot the cumulative amount of transported drug against time to obtain rate transport. The percent recovery was calculated using the following equation

[3] = Plasma protein binding, equilibrium dialysis, dog; format: in vitro ADME; conditions: plasma (10% plasma, extrapolated to 100% plasma), Beagle plasma, 18 hours at 37° C.
Protocol: (§1) Protein binding is measured using the equilibrium dialysis technique. Compound is added to 10% plasma giving a concentration of 10 μM and dialysed with isotonic buffer for 18 hours at 37° C. The plasma and buffer solutions are analysed using generic LC UV/MS and the first apparent binding constant for the compound derived. The binding constant is then used to determine the % free in 100% plasma
(§2) The percentage of plasma bound/unbound fraction preparation was calculated as follows
(§3) [formula] [formula] where, • Tc=Total plasma concentration was determined by the calculated concentration on the plasma side of the chamber • Fc=[…] was determined by the calculated concentration on the buffer side of the chamber • To=Total compound concentration determined before analysis.

[4] = system: Dog hepatocytes; assay: Metabolic stability and intrinsic clearance in dog hepatocytes (with IVIVE); format: in vitro ADME; conditions: Dog; for Predicted CLh: IVIVE from hepatocyte CLint; for Hepatocyte Clint: Table 6 (IVIVE)
Protocol: (§4) The metabolic stability was expressed as the percentage of parent remaining is calculated from the peak area ratio of NCE remaining after incubation (tx) compared to the time zero (t0) incubation. The percentage of parent test compound remaining at each time point was calculated by comparing the peak area ratio of test compound after incubation (tx) with peak area of time zero (t0) incubation. Similarly, half-life (t½) was calculated using following equation:
(§5) [formula] The intrinsic clearance (Clint) was calculated using the following equations:
(§6) [formula] Scaling factors to represent […] million cells/gm liver and liver/kg body wt.

[5] = as above; format: in vitro ADME; conditions: Dog hepatocytes
Protocol: as §4, §5, §6

[6] = Plasma protein binding, equilibrium dialysis, human; format: in vitro ADME; conditions: plasma (10% plasma, extrapolated to 100% plasma), 18 hours at 37° C.
Protocol: as §1, §2, §3

Cc1cccc(CCNc2nc3c(C)c(C)nn3c(N)c2C#N)n1 [Example 13, 7-amino-5-((2-(6-methylpyridin-2-yl)ethyl)amino)-2,3-dimethylpyrazolo[1,5-a]pyrimidine-6-carbonitrile]
IC50 [1]: 2320 nM
Papp A→B at 120 min, 10 µM [2]: 58 ×10⁻⁶ cm/s
Papp B→A at 120 min, 10 µM [2]: 19.5 ×10⁻⁶ cm/s
fraction unbound at 18 h, 10 µM [3]: 0.09
Predicted CLh [4]: 17 mL/min/kg
Hepatocyte Clint [4]: 9.5 μl/min/10^6
hepatocyte CLint at 0.5 μM [5]: 9.5 µL/min/1e6 cells
fraction unbound at 18 h, 10 µM [6]: 0.05

CCc1c(C)nn2c(N)c(C#N)c(NCCc3ccn(C4(CO)CC4)n3)nc12 [Example 39, 7-amino-3-ethyl-5-((2-(1-(1-(hydroxymethyl)cyclopropyl)-1H-pyrazol-3-yl)ethyl)amino)-2-methylpyrazolo[1,5-a] pyrimidine-6-carbonitrile]
IC50 [1]: 1830 nM
Papp A→B at 120 min, 10 µM [2]: 18.4 ×10⁻⁶ cm/s
Papp B→A at 120 min, 10 µM [2]: 18.5 ×10⁻⁶ cm/s
fraction unbound at 18 h, 10 µM [3]: 0.156
Predicted CLh [4]: 18 mL/min/kg
Hepatocyte Clint [4]: 10.8 μl/min/10^6
hepatocyte CLint at 0.5 μM [5]: 10.8 µL/min/1e6 cells
fraction unbound at 18 h, 10 µM [6]: 0.0913

CCc1c(C)nn2c(N)c(C#N)c(NCCc3ccn(C4COCC4CO)n3)nc12 (single isomer, unassigned; (-)) [Example 122b, (−)-7-amino-3-ethyl-5-((2-(1-(4-(hydroxymethyl)tetrahydrofuran-3-yl)-1H-pyrazol-3-yl)ethyl)amino)-2-methyl pyrazolo[1,5-a]pyrimidine-6-carbonitrile]
IC50 [1]: 521 nM
Papp A→B at 120 min, 10 µM [2]: 14.4 ×10⁻⁶ cm/s
Papp B→A at 120 min, 10 µM [2]: 15.9 ×10⁻⁶ cm/s
fraction unbound at 18 h, 10 µM [3]: 0.15
Predicted CLh [4]: 10 mL/min/kg
Hepatocyte Clint [4]: <4.1 μl/min/10^6
hepatocyte CLint at 0.5 μM [5]: < 4.1 µL/min/1e6 cells
fraction unbound at 18 h, 10 µM [6]: 0.117
